Results reported in PubChem BioAssay AID1963984 (Molecular Pharmacology Branch, DTP, NCI, 2024).
pIC50: −log10 of the molar value. Where “and” joins values, the source holds several entries; their conditions need not be identical. Equal entries are not always repeated.

Test system: 233499-124-R-J3-PDC spheroids with HUVEC/MSC, viability
Test: Anticancer human tumor 233499-124-R-J3-PDC patient-derived colon adenocarcinoma cell line growth inhibition [PI3K]
Conditions: for viability, T/C: stronger effect = lower value
Text: Combinatorial screen of targeted agents with the PI3K inhibitors inavolisib, alpelisib, duvelisib, and copanlisib in multi-cell type tumor spheroids
A high-throughput screen of multi-cell type tumor spheroids was designed to identify active combinations of targeted small molecules and PI3K pathway inhibitors. Complex spheroids include a stromal component modeled by human endothelial cells (HUVEC) and fibroblasts modeled by human mesenchymal stem cells (MSCs). The concentration ranges selected for each drug and investigational agent were based upon clinically achievable concentrations if the clinical Cmax of the agent was known.
Compounds. The drugs and investigational agents: inavolisib (NSC800729), alpelisib (NSC765974), duvelisib (NSC772469), copanlisib (NSC816437), ipatasertib (NSC767898), afuresertib (NSC778305), talazoparib (NSC767125), sapanisertib (NSC764658), selumetinib (NSC741078), tovorafenib (DAY101, NSC766906), vemurafenib (NSC761431), ravoxertinib (NSC781343), sotorasib (NSC818433), MRTX1133 (NSC 836407), abemaciclib (NSC 768073), palbociclib (NSC758247), venetoclax (NSC 766270), SY5609 (NSC837396), enzalutamide (NSC755605), and darolutamide (NSC825331), were obtained from the National Cancer Institute (NCI) Developmental Therapeutics Program Chemical Repository. The FDA-approved anticancer drug set is available from the NCI Developmental Therapeutics Program. […] The stock solutions were prepared in dimethyl sulfoxide (DMSO, Sigma-Aldrich, St. Louis, MO, cat. D2650) at 800-fold the tested concentration and stored at -70 degrees C prior to their use. All drugs and investigational agents were tested over a range starting from a high concentration at or near the clinical Cmax and decreasing in half-log increments. If the clinical Cmax for an agent had not been determined, the highest concentration tested was 10 microM.
Cell Culture. All cells were maintained in an incubator at 37 degrees C and 5% CO2 with 95% humidity. The PDC lines were cultured according to standard operating procedures established by the NCI PDMR (https://pdmr.cancer.gov/sops/default.htm). All PDCs were thawed and cultured in Matrigel-coated flasks prepared with a working solution of 1X Ham's F-12 nutrient mix, without supplementation (Invitrogen, Waltham, MA, cat. 11765054), 100 U/mL penicillin-streptomycin (Invitrogen, cat. 15140122), and 2.5% Matrigel (Corning Inc., Corning, NY, cat. 354248) for the first three passages. The 354836-022-R-J1-PDC, 475296-252-R-J1-PDC, and 997726-040-R-J2-PDC lines were cultured in 6A media, which includes advanced DMEM/F-12 (Thermo Fisher Scientific, cat. 12634028), 10 mM HEPES (Thermo Fisher Scientific, cat. 15630080), 1X GlutaMAX supplement (Thermo Fisher Scientific, cat. 35050061), 0.1 mg/mL primocin (InvivoGen, San Diego, CA, cat. ant-pm-2), 10% defined fetal bovine serum, heat inactivated (HyClone Laboratories Inc., Logan, UT, cat. SH30070.03HI), 50% L-WRN conditioned media (ATCC, cat. CRL-3276), 1.25 mM N-Acetyl-L-cysteine (Sigma-Aldrich, cat. A9165), 10 mM nicotinamide (Sigma-Aldrich, cat. N0636), 1X B-27 supplement (Thermo Fisher Scientific, cat. 17504044), 1X N-2 supplement (Thermo Fisher Scientific, cat. 17502048), and 10 microM Y-27632 dihydrochloride (Tocris Bioscience, Bristol, United Kingdom, cat. 1254). The 624824-186-R-J2-PDC line was cultured in 6C/Colon 1B media, which includes all 6A media components plus 50 ng/mL human EGF recombinant protein (Thermo Fisher Scientific, cat. PHG0311). […]

[1] = compound alone, run of 05/09/2023
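Also: spheroids exposed to agents for seven days before readout.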
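For viability, T/C in this document: percent viability relative to DMSO vehicle control taken as 100%.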

Row | Structure (SMILES) | viability, T/C (compound 0.0316 µM) | viability, T/C (compound 0.1 µM) | viability, T/C (compound 0.316 µM) | viability, T/C (compound 1 µM) | viability, T/C (compound 3.16 µM) | viability, T/C (compound 10 µM) | pIC50 (curve of compound) | IC50 (curve of compound) | also measured
1 | C#Cc1c(F)ccc2cc(O)cc(-c3ncc4c(N5CC6CCC(C5)N6)nc(OCC56CCCN5CC(F)C6)nc4c3F)c12 (configuration not stated) | 96% [middle of 4 runs] | 102% [middle of 4 runs] | 95.6% [middle of 4 runs] | 99.3% [middle of 4 runs] | 87.5% [middle of 4 runs] | 84.1% [middle of 4 runs] | < 5.00 |  | 
2 | C=CC(=O)N1CCN(c2nc(=O)n(-c3c(C)ccnc3C(C)C)c3nc(-c4c(O)cccc4F)c(F)cc23)C(C)C1 (configuration not stated) | 91.7% [middle of 4 runs] | 99.3% [middle of 4 runs] |  | 113% [middle of 4 runs] | 99.9% [middle of 4 runs] |  | < 5.00 |  | 
3 | CC(=O)c1c(C)c2cnc(Nc3ccc(N4CCNCC4)cn3)nc2n(C2CCCC2)c1=O |  | 91.2% [middle of 4 runs] |  |  |  |  | < 7.00 |  | viability, T/C (compound 0.000316 µM): 98.4% [middle of 4 runs]; viability, T/C (compound 0.001 µM): 98.5% [middle of 4 runs]; viability, T/C (compound 0.00316 µM): 85.1% [middle of 4 runs]; viability, T/C (compound 0.01 µM): 88.2% [middle of 4 runs]
4 | CC(C)NCC(C(=O)N1CCN(c2ncnc3c2C(C)CC3O)CC1)c1ccc(Cl)cc1 (configuration not stated) | 97.7% [middle of 4 runs] |  | 94% [middle of 4 runs] | 102% [middle of 4 runs] | 94.5% [middle of 4 runs] |  | < 5.00 |  | 
5 | CC(C)n1nc(-c2ccc3oc(N)nc3c2)c2c(N)ncnc21 | 82.9% [middle of 4 runs] | 58.7% [middle of 4 runs] |  |  |  |  | < 7.00 |  | viability, T/C (compound 0.001 µM): 94.8% [middle of 4 runs]; viability, T/C (compound 0.00316 µM): 89.4% [middle of 4 runs]; viability, T/C (compound 0.01 µM): 85.9% [middle of 4 runs]
6 | CC(Cn1ccc(-c2ccc(C#N)c(Cl)c2)n1)NC(=O)c1cc(C(C)O)[nH]n1 (configuration not stated) |  |  | 97.2% [middle of 4 runs] | 98.2% [middle of 4 runs] | 92.5% [middle of 4 runs] |  | < 5.00 |  | 
7 | CC(Nc1ccc2c(c1)OCCn1cc(N3C(=O)OCC3C(F)F)nc1-2)C(N)=O (configuration not stated) |  | 80.2% [middle of 8 runs] |  | 71.6% [middle of 8 runs] |  |  |  |  | pIC50 (compound alone, run of 05/08/2023): < 6.00
8 | CC(Nc1ncnc2nc[nH]c12)c1cc2cccc(Cl)c2c(=O)n1-c1ccccc1 (configuration not stated) | 93.9% [middle of 8 runs] | 97.2% [middle of 8 runs] | 95.8% [middle of 8 runs] | 103% [middle of 8 runs] | 100% [middle of 8 runs] | 89.7% [middle of 8 runs] |  |  | pIC50 [1]: < 5.00
9 | CC1(C)CCC(CN2CCN(c3ccc(C(=O)NS(=O)(=O)c4ccc(NCC5CCOCC5)c([N+](=O)[O-])c4)c(Oc4cnc5[nH]ccc5c4)c3)CC2)=C(c2ccc(Cl)cc2)C1 | 96.5% [middle of 4 runs] | 104% [middle of 4 runs] |  |  | 100% [middle of 4 runs] |  |  |  | 
10 | CC1(C)CCC(Nc2ncc(C(F)(F)F)c(-c3c[nH]c4c(P(C)(C)=O)c(C#N)ccc34)n2)CN1 (configuration not stated) | 66.7% [middle of 4 runs] |  | 46.9% [middle of 4 runs] | 26.5% [middle of 4 runs] | 29.1% [middle of 4 runs] | 5.67% [middle of 4 runs] |  |  | 
11 | CCCS(=O)(=O)Nc1ccc(F)c(C(=O)c2c[nH]c3ncc(-c4ccc(Cl)cc4)cc23)c1F |  | 97.4% [middle of 4 runs] | 97.2% [middle of 4 runs] | 100% [middle of 4 runs] |  | 2.53% [middle of 4 runs] |  | 5.22 µM [middle of 4 runs] | 
12 | CCN1CCN(Cc2ccc(Nc3ncc(F)c(-c4cc(F)c5nc(C)n(C(C)C)c5c4)n3)nc2)CC1 | 85.6% [middle of 4 runs] | 93.8% [middle of 4 runs] | 58.9% [middle of 4 runs] | 38.2% [middle of 4 runs] |  |  |  |  | viability, T/C (compound 0.01 µM): 88.5% [middle of 4 runs]
13 | CNC(=O)c1ccc(N2C(=S)N(c3ccc(C#N)c(C(F)(F)F)c3)C(=O)C2(C)C)cc1F | 93% [middle of 4 runs] | 94.5% [middle of 4 runs] | 107% [middle of 4 runs] | 93.1% [middle of 4 runs] | 92.1% [middle of 4 runs] |  | < 5.00 |  | 
14 | COc1c(OCCCN2CCOCC2)ccc2c3n(c(=NC(=O)c4cnc(N)nc4)nc12)CCN3 | 93.6% [middle of 8 runs] |  | 31.3% [middle of 8 runs] | 11.8% [middle of 8 runs] |  |  |  |  | viability, T/C (compound 0.01 µM): 84.7% [middle of 8 runs]; IC50 [1]: 185 nM [middle of 8 runs]
15 | C[C@@H](NC(=O)c1ncnc(N)c1Cl)c1ncc(C(=O)Nc2cc(C(F)(F)F)c(Cl)cn2)s1 |  |  |  |  | 110% [middle of 4 runs] | 110% [middle of 4 runs] | < 5.00 |  | 
16 | Cc1nc(NC(=O)N2CCCC2C(N)=O)sc1-c1ccnc(C(C)(C)C(F)(F)F)c1 (configuration not stated) | 79.1% [middle of 7 runs] | 88.6% [middle of 8 runs] |  |  |  |  |  |  | 
17 | Cn1cnc2c(F)c(Nc3ccc(Br)cc3Cl)c(C(=O)NOCCO)cc21 |  |  |  |  |  |  |  |  | viability, T/C (compound 0.00949 µM): 80.2% [middle of 4 runs]; viability, T/C (compound 0.0949 µM): 64.8% [middle of 4 runs]; viability, T/C (compound 0.3 µM): 50.3% [middle of 4 runs]; viability, T/C (compound 0.949 µM): 49.8% [middle of 4 runs]; viability, T/C (compound 3 µM): 30.5% [middle of 4 runs]
18 | Cn1ncc(Cl)c1-c1cc(C(=O)NC(CN)Cc2cccc(F)c2)sc1Cl (configuration not stated) | 85.8% [middle of 4 runs] | 102% (2×) and 85.4% and 93.9% | 86.2% [middle of 4 runs] | 89.6% [middle of 4 runs] | 63.6% [middle of 4 runs] | 32.4% [middle of 4 runs] |  | 4.62 µM [middle of 4 runs] | 
19 | Cn1nccc1Nc1nccc(-c2ccn(C(CO)c3ccc(Cl)c(F)c3)c(=O)c2)n1 (configuration not stated) |  | 100% [middle of 4 runs] |  |  |  | 71.2% [middle of 4 runs] | < 5.00 |  | 
20 | Cn1ncnc1[C@H]1c2n[nH]c(=O)c3cc(F)cc(c23)N[C@@H]1c1ccc(F)cc1 | 103% [middle of 4 runs] | 89% [middle of 4 runs] |  |  |  |  | < 7.00 |  | viability, T/C (compound 0.000316 µM): 100% [middle of 4 runs]; viability, T/C (compound 0.001 µM): 99.6% [middle of 4 runs]
